Measured values reported in patent US20060183902A1, “Dihydroindolyl methanones as alpha 1a/1d adrenoreceptor modulators for the treatment of benign prostatic hypertrophy and lower urinary tract symptoms” (priority 2005, published 2006).

Assays:
[1] = tested on: normal rats and rats with bladder hypertrophy secondary to outlet obstruction; settings: intrathecally administered; cited from earlier work
[2] = molecular target: T1, α1d-AR (Homo sapiens, UniProt P25100); experiment: α1-Adrenergic receptor radio-ligand (125I-HEAT) binding assay, α1d subtype; settings: COS-7 cell membranes transfected with α1d-AR, 125I-HEAT 50 pM; read-out: Receptor Binding, Ki α1d-AR
T1 construct: expressed in transfected cells; host or cells: COS-7
T1 sequence (P25100 1-572): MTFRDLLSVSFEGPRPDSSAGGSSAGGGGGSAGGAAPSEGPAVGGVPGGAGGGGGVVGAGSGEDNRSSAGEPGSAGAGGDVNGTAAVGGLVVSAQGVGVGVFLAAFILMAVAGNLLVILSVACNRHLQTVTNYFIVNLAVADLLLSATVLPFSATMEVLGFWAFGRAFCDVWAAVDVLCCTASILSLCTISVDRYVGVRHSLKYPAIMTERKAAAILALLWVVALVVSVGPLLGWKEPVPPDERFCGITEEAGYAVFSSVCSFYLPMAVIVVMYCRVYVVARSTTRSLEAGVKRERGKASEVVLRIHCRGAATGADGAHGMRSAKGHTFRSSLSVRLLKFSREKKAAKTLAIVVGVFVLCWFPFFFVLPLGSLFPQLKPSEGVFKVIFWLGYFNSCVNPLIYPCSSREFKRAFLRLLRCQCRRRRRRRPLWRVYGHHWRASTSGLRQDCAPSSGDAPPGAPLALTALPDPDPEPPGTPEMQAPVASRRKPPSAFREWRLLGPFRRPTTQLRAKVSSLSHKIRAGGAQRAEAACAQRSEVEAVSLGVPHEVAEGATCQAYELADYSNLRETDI
Procedure, shortened: (§1)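 Membranes from COS-7 cells transfected with a single α1-AR subtype, incubated 1 h at rt with 50 pM 125I-HEAT and compound (1 pM–10 µM, half-log steps, final) in Tris/EDTA/NaCl pH 7.4. Bound radioactivity collected by GF/C filtration and scintillation counting, triplicates; Ki derived.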

[3] = molecular target: T2, α1a-AR (Homo sapiens, UniProt P35348); experiment: α1-Adrenergic receptor radio-ligand (125I-HEAT) binding assay, α1a subtype; settings: COS-7 cell membranes transfected with α1a-AR, 125I-HEAT 50 pM; read-out: Receptor Binding, Ki α1a-AR
T2 construct: expressed in transfected cells; host or cells: COS-7
T2 sequence (P35348 1-466): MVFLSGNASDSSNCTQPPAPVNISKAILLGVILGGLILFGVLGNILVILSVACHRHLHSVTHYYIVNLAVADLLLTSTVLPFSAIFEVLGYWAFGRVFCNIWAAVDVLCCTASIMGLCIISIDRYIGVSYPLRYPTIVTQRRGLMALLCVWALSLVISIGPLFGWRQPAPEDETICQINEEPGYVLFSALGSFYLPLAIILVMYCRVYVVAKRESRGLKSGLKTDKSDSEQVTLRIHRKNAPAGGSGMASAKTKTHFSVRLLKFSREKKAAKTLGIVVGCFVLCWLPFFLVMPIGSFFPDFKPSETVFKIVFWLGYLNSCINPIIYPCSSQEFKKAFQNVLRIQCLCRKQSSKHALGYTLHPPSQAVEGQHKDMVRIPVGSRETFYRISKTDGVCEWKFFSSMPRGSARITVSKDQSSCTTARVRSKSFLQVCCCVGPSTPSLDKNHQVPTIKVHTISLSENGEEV
Procedure, shortened: as §1

[4] = molecular target: T3, α1b-AR (Homo sapiens, UniProt P35368); experiment: α1-Adrenergic receptor radio-ligand (125I-HEAT) binding assay, α1b subtype; settings: COS-7 cell membranes transfected with α1b-AR, 125I-HEAT 50 pM; read-out: Receptor Binding, Ki α1b-AR
T3 construct: expressed in transfected cells; host or cells: COS-7
T3 sequence (P35368 1-520): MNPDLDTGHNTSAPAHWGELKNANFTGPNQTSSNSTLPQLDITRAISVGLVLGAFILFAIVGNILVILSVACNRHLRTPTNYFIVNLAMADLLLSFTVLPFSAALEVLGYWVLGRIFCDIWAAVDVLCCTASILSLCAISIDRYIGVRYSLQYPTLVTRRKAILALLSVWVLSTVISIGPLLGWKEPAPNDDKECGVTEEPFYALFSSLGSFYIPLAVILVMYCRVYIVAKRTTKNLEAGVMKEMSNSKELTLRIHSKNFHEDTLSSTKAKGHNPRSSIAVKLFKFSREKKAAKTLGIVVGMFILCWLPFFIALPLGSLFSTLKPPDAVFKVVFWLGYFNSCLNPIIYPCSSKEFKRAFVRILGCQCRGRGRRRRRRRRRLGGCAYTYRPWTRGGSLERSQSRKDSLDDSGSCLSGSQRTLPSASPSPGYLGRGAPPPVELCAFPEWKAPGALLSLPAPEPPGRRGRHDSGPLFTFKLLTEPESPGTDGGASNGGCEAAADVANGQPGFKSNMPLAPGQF
Procedure, shortened: as §1

[5] = tested on: α1a and α1d subtypes over the α1b subtype; settings: cited from earlier work
[6] = tested on: BPH patients; settings: clinical studies; cited from earlier work

SMILES | Ki [2] | melting point | Ki [3] | Ki [4] | micturition pressure [1] | selective for the α1a and α1d subtypes over the α1b subtype [5] | effect on obstructive and irritative symptoms of BPH [6]
COc1cc2nc(N3CCN(C(=O)C4COc5ccccc5O4)CC3)nc(N)c2cc1OC (stereo not shown) [doxazosin] | – | – | – | – | decrease in micturition pressure | – | –
CC(C)Oc1ccccc1N1CCN(Cc2cccc(C(=O)N3CCc4cc(NS(=O)(=O)c5cccc6c(N(C)C)cccc56)ccc43)c2)CC1 [Cpd 3, 5-dimethylamino-naphthalene-1-sulfonic acid (1-{3-[4-(2-isopropoxy-phenyl)-piperazin-1-ylmethyl]-benzoyl}-2,3-dihydro-1H-indol-5-yl)-amide] | 98 nM | 80 to 83 °C | 65 nM | 3450 nM | – | – | –
CC(C)Oc1ccccc1N1CCN(Cc2cccc(C(=O)N3CCc4cc(NS(=O)(=O)c5ccc6ccccc6c5)ccc43)c2)CC1 [Cpd 2, naphthalene-2-sulfonic acid (1-{3-[4-(2-isopropoxy-phenyl)-piperazin-1-ylmethyl]-benzoyl}-2,3-dihydro-1H-indol-5-yl)-amide] | 9.7 nM | 73 to 76 °C | 1.1 nM | 321 nM | – | – | –
CC(C)Oc1ccccc1N1CCN(Cc2cccc(C(=O)N3CCc4ccc(NS(=O)(=O)c5cccc6c(N(C)C)cccc56)cc43)c2)CC1 [Cpd 32, 5-dimethylamino-naphthalene-1-sulfonic acid (1-{3-[4-(2-isopropoxy-phenyl)-piperazin-1-ylmethyl]-benzoyl}-2,3-dihydro-1H-indol-6-yl)-amide] | 9.4 nM | 137 to 139 °C | 2.7 nM | 610 nM | – | – | –
COc1cccc(OC)c1CNc1ccc2c(c1)CCN2C(=O)c1cccc(CN2CCN(c3ccccc3OC(C)C)CC2)c1 [Cpd 25, [5-(2,6-dimethoxy-benzylamino)-2,3-dihydro-indol-1-yl]-{3-[4-(2-isopropoxy-phenyl)-piperazin-1-ylmethyl]-phenyl}-methanone] | 18 nM | 79 to 81 °C | 67 nM | 1300 nM | – | – | –
CCOc1ccccc1OCCN[C@H](C)Cc1ccc(OC)c(S(N)(=O)=O)c1 [Tamsulosin] | – | – | – | – | – | about 15 fold | improvement in both obstructive and irritative symptoms

Now from value to compound, other results behind:

Ki [2] | melting point | Ki [3] | Ki [4] | SMILES | micturition pressure [1] | selective for the α1a and α1d subtypes over the α1b subtype [5] | effect on obstructive and irritative symptoms of BPH [6]
2 nM | 229 to 232 °C | 34 nM | 200 nM | COc1cccc(OC)c1C(=O)Nc1ccc2c(c1)CCN2C(=O)c1cccc(CN2CCN(c3ccccc3OC(C)C)CC2)c1 [Cpd 26, N-(1-{3-[4-(2-isopropoxy-phenyl)-piperazin-1-ylmethyl]-benzoyl}-2,3-dihydro-1H-indol-5-yl)-2,6-dimethoxy-benzamide] | – | – | –
4 nM | 192 to 195 °C | 0.04 nM | 43 nM | Cc1c(S(=O)(=O)Nc2ccc3c(c2)N(C(=O)c2cccc(CN4CCN(c5ccccc5OC(C)C)CC4)c2)CC3)sc2ccc(Cl)cc12 [Cpd 18, 5-chloro-3-methyl-benzo[b]thiophene-2-sulfonic acid (1-{3-[4-(2-isopropoxy-phenyl)-piperazin-1-ylmethyl]-benzoyl}-2,3-dihydro-1H-indol-6-yl)-amide] | – | – | –
8.6 nM | 137 to 139 °C | 1.5 nM | 301 nM | CC(C)Oc1ccccc1N1CCN(Cc2cccc(C(=O)N3CCc4cc(N)ccc43)c2)CC1 [Cpd 1, (5-amino-2,3-dihydro-indol-1-yl)-{3-[4-(2-isopropoxy-phenyl)-piperazin-1-ylmethyl]-phenyl}-methanone] | – | – | –
